Entries after “also recorded” stand apart in the source; their conditions may differ.
Columns and labels:
MCP-1 = assay: Quantitative RT-PCR of LPS-induced MCP-1 mRNA in L6-GLUT4myc myotubes; assay type: cell-based, rat; conditions: 500 nM CDDO-EA 1 hr then 100 ng/ml LPS 1 hr
Procedure: Quantitative RT-PCR: L6-GLUT4myc myoblasts (4×10^4 cell/ml, 2 ml/well) were seeded on a 6-well plate and differentiated into myo-tubes with differentiation medium for 7 days. Myotubes were pre-treated with CDDO-EA 500 nM for 1 h followed by LPS 100 ng/ml (E. coli O111: B4, Sigma Aldrich) treatment for 1 h. RNA was isolated from treated myotubes using TRIzol reagent (Ambion) according to the manufacturer's instructions. Validated RT-PCR primers specific for rat TNF-α (Assay ID: Rn99999017_m1) and rat MCP-1 (Assay ID: Rn00580555_m1), or rat GAPDH (Assay ID: Rn99999916_s1) were used to quantify mRNA levels using TaqMan RNA-to-CT 1-Step Kit (Thermo Fisher Scientific), Real-time PCR was carried out using an AB7900HT Fast Real-Time PCR System (Applied Biosystems), and MCP-1 and TNF-α levels were calculated using the ΔΔCT method according to the manufacturer's instructions.

[1] = Food intake in mice fed HFD with or without CDDO-EA, LFD or HFD pair-fed; assay type: in vivo, C57BL/6J mice; conditions: HFD + CDDO-EA (0.04%) vs ad libitum HFD
Source text: C57BL/6J mice were fed a HFD with or without incorporation of CDDO-EA (diet containing 0.04% CDDO-EA) or LFD or HFD pair-fed for 6 weeks (n=5). Food intake data points in week 1 are not recorded when mice were in the Prometheion. Data are represented as mean±SEM (Two-way Repeated Measures ANOVA). *p<0.05; **p<0.01 vs. HFD pair-fed; ? p<0.01 vs. HFD+CDDO-EA; ##p<0.01 vs. LFD ad lib.
C57BL/6J mice (6-8 weeks old, male, strain #000664, The Jackson Laboratory) were divided into four (4) groups (i)-(iv)): (i) ad libitum Low fat caloric content (LFD-10% of total calories from fat caloric content, #TD.08806, Envigo), (ii) ad libitum HFD (60% of total calories from fat caloric content, #TD.06414, Envigo), (iii) HFD+CDDO-EA (diet containing 0.04% CDDO-EA), and (iv) HFD pair-fed to food intake of mice fed HFD+CDDO-EA. The study was for 6 weeks (42 days) (performed at Vanderbilt Metabolic Mouse Phenotyping Center (VMMPC)). Mice were singly housed in a Promethion Metabolic Analyzer and were monitored continuously for 7 days to assess feeding and EE.

[2] = Body weight of mice fed LFD or HFD with or without CDDO-EA in the chow for 6 weeks; assay type: in vivo, C57B16/J mice
Source text: To assess the protective effects of CDDO-EA from obesity and insulin resistance, C57B16/J mice (6-8 weeks old, male, strain #000664, The Jackson Laboratory) were used. The animals were fed a Low Fat diet (LFD) (10% total calories from fat, […]) or a High Fat diet (HFD) (60% of total calories from fat) incorporated with or without CDDO-EA (chow containing 0.04% CDDO-EA) for six weeks. Feeding groups: The mice were put into one of four groups: • (i) HFD (60% total calories from fat), • (ii) HFD+0.04% CDDO-EA, • (iii) LFD (10% total calories from fat), • (iv) LFD+0.04% CDDO-EA. Unlike Shin et al. and Camer et al., where the CDDO was administered via gavage or in the drinking water, the present studies provide for a feed material (veterinary chow mix) formulated to include 400 mg CDDO-EA in 1 kilogram of veterinary chow, which is 0.04% CDDO-EA in 1 kilogram of veterinary chow. […] This is because the amount of chow without CDDO-EA (LFD) consumed by the animals was approximately the same amount of chow with CDDO-EA consumed by the animals (LFD+CDDO-EA) (See Table 3). Data were statistically analyzed by One-Way ANOVA, Two-Way ANOVA with repeated measures, or Two-Way ANOVA with Tukey's multiple comparison test. Throughout the collection of blood samples, OGTTs, and measurement of bodyweight, mice were unrestrained and awake. Blood samples were collected via tail snip before start of experimental feeding and then every two weeks. Oral glucose tolerance tests (OGTTs) were performed after the six-week experimental feeding, and blood samples were collected via tail snip during the OGTT. For OGTT, mice were given 2 g of glucose/kg of body weight by gavage after a five hour fast (36). Glucose levels were measured using a glucometer (Contour), and insulin concentrations were measured using an ELISA (Mercodia). Mice were weighed once a week. Glucose and insulin serum levels were measured every two weeks.

CCNC(=O)[C@]12CCC(C)(C)C[C@H]1C1C(=O)C=C3[C@@]4(C)C=C(C#N)C(=O)C(C)(C)[C@@H]4CC[C@@]3(C)[C@]1(C)CC2 (stereo partly drawn) [CDDO-EA, (4aS,6aR,6bS,8aR,12aS,14bS)-11-cyano-N-ethyl-2,2,6a,6b,9,9,12a-heptamethyl-10,14-dioxo-1,3,4,5,6,6a,6b, 7,8,8a,9,10,12a, 14,14a, 14b-hexadecahydropicene-4a (2H)-carboxamide]
LPS-induced MCP-1 mRNA expression (MCP-1): lowered LPS-induced mRNA levels of TNF-α and MCP-1; also recorded: blocked the mRNA expression of LPS-induced TNF-α and MCP-1; also recorded: reduced LPS-induced TNF-α and MCP-1 gene expression levels; also recorded: inhibits LPS-inducted TNF-α and MCP-1 gene expression
food intake [1]: prevented an increase in food intake; also recorded: decreases food intake
difference in weight between mice fed a high fat diet and mice fed a high fat diet incorporated with CDDO-EA ([2]; 0.04% CDDO-EA, 6 weeks): 66.8%
Average Weight (g) of Mice ([2]; HFD + CDDO-EA (0.04%), week 1): 23.4 ± 0.5 g
Average Weight (g) of Mice ([2]; HFD + CDDO-EA (0.04%), week 2): 23.2 ± 0.5 g
Average Weight (g) of Mice ([2]; HFD + CDDO-EA (0.04%), week 3): 24.6 ± 0.5 g
Average Weight (g) of Mice ([2]; HFD + CDDO-EA (0.04%), week 4): 24.1 ± 0.5 g
Average Weight (g) of Mice ([2]; HFD + CDDO-EA (0.04%), week 5): 25.4 ± 0.5 g
Average Weight (g) of Mice ([2]; HFD + CDDO-EA (0.04%), week 6): 25.3 ± 0.5 g
body weight gain / obesity ([2]; HFD + CDDO-EA (400 mg/kg diet, 0.04%), 6 weeks): did not have a significant increase in body weight; also recorded: significantly blocked gain weight; also recorded: prevented the excess weight gain; also recorded: inhibits weight gain and obesity in vivo; also recorded: did not evidence a significant weight gain; also recorded: prevents obesity
Average Weight (g) of Mice ([2]; HFD + CDDO-EA (diet containing 0.04% CDDO-EA), week 0): 23.8 ± 0.5 g
significant weight gain prevented ([2]; HFD incorporated with 0.04% CDDO-EA): 66.8%
Average Weight (g) of Mice ([2]; LFD + CDDO-EA (0.04%), week 1): 24.4 ± 0.9 g
Average Weight (g) of Mice ([2]; LFD + CDDO-EA (0.04%), week 2): 24.4 ± 0.8 g
Average Weight (g) of Mice ([2]; LFD + CDDO-EA (0.04%), week 3): 25.8 ± 0.7 g
Average Weight (g) of Mice ([2]; LFD + CDDO-EA (0.04%), week 4): 25.4 ± 0.7 g
Average Weight (g) of Mice ([2]; LFD + CDDO-EA (0.04%), week 5): 26.4 ± 0.6 g
Average Weight (g) of Mice ([2]; LFD + CDDO-EA (0.04%), week 6): 26.0 ± 0.4 g
Average Weight (g) of Mice ([2]; LFD + CDDO-EA (diet containing 0.04% CDDO-EA), week 0): 25.5 ± 1.0 g

— US20260207626A1, “SYNTHETIC TRITERPENOIDS AND COMPOSITIONS THEREOF IN WEIGHT MANAGEMENT, SKELETAL MUSCLE FUNCTION, AND APPETITE SUPPRESSION” (The Board of Regents of the University of Texas System, priority 2022, published 2026)
